Results published in patent publication US5134140A, “Psychotropic benzofuran derivatives” (American Home Products Corporation, priority 1991, dated 1992).
Entries after “also recorded” stand apart in the source; their conditions may differ. Read-outs that look alike come from different tables or passages of the source.

Key:
[1] = molecular target: T1, serotonin 5-HT1A receptor (Rattus norvegicus, UniProt P19327); assay: 5-HT1A binding, displacement of [3H] 8-OHDPAT
T1 construct: following the procedure of Hall et al., J. Neurochem; 44, 1685 (1985); from tissue
T1 sequence (P19327 1-422): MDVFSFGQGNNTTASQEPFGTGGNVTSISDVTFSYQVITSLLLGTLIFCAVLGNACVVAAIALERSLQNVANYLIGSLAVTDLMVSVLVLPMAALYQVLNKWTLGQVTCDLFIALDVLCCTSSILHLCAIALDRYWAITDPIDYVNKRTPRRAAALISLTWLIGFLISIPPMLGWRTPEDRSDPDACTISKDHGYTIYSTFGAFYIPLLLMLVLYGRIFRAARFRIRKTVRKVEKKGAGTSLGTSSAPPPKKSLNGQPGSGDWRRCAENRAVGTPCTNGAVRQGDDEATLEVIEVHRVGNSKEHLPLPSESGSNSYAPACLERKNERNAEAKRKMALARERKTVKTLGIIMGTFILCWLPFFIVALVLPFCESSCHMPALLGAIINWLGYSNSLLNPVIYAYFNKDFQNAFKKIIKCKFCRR
Excerpt: High affinity for the serotonin 5-HT1A receptor was established by testing the claimed compound's ability to displace [^3 H] 8-OHDPAT (dipropylaminotetralin) from the 5-HT1A serotonin receptor following the procedure of Hall et al., J. Neurochem. 44, 1685 (1985). […] The anxiolytic activity of buspirone is believed to be, at least partially, due to its 5-HT1A receptor affinity (Vander Maclen et al., Eur. J. Pharmacol. 1986, 129 (1-2) 133-130).

dopamine D2 receptor = molecular target: T2, dopamine D2 receptor (Rattus norvegicus, UniProt P61169); assay: D-2 binding, 3H-spiroperidol, homogenized limbic brain tissue
T2 construct: from tissue; host or cells: homogenized limbic brain tissue
Experimental: Modest affinity for the dopamine D2 receptor was established by the standard experimental test procedure of Fields, et al., Brain Res., 136, 578 (1977) and Yamamura et al., eds., Neurotransmitter Receptor Binding, Raven Press, N.Y. (1978) wherein homogenized limbic brain tissue is incubated with ^3 H-spiroperidol and various concentrations of test compound, filtered and washed and shaken with Hydrofluor scintillation cocktail (National Diagnostics) and counted in a Packard 460 CD scintillation counter.

5-HT1A receptor = details: cited from earlier work
serotonin syndrome = assay: ability to produce or antagonize the serotonin syndrome in rats; assay type: in vivo, male Sprague-Dawley CD rats; details: for ED50: Rattus norvegicus
Experimental: Certain of the compounds of this invention were also compared to buspirone in their ability to either produce or antagonize the serotonin syndrome according to the procedure of Smith and Peroutka, Pharmacol. Biochem. Behav. 24:1513-1519, 1986, in which 250-350 g male Sprague-Dawley CD rats (Charles River) are given either test compound or vehicle and placed individually into plexiglass observation cages. Agonist activity of the compound is determined by scoring for the presence of the serotonin syndrome (forepaw treading, head weaving, tremor, hindlimb abduction, flattened body posture, and Straub tail) during the first 15 minutes after compound administration. Antagonist activity is then determined by a challenge with either of the 5-HT1A agonists 5-methoxy-N,N-dimethyltryptamine (5-MeODMT) or 8-hydroxydipropylaminotetralin.

[2] = molecular target: T1, serotonin 5-HT1A receptor; details: buspirone standard; cited from earlier work
[3] = antagonist activity, challenge with 5-MeODMT or 8-hydroxydipropylaminotetralin, agonist not specified for these values, read-out: ED50, antagonize the serotonin syndrome

T2 sequence (P61169 whole entry): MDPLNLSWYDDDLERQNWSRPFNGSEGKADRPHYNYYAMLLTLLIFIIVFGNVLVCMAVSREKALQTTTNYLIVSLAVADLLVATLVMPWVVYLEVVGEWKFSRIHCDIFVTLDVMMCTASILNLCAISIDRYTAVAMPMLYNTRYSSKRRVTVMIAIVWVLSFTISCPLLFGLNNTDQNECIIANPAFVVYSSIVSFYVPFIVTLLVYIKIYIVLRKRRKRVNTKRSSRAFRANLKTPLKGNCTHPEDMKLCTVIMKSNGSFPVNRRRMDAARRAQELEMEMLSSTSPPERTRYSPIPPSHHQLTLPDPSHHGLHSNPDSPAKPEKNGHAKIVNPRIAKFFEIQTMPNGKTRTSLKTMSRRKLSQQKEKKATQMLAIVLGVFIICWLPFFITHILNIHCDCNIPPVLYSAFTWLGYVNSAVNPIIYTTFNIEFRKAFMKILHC

Row | SMILES | inhibition at 0.1 µM [1] | further results
1 | COc1cccc2cc(CNCCNC(=O)C34CCC(CC3=O)C4(C)C)oc12 (single isomer, unassigned) [Example 5, N-[2-[[(7-Methoxy-2-benzofuranyl)methyl]amino]ethyl]-7,7-dimethyl-2-oxobicyclo[2.2.1]heptane-1-carboxamide] | 87% | inhibition at 1 µM (dopamine D2 receptor): 4%
2 | O=C1CC2(CCCC2)CC(=O)N1CCCCNCC1COc2ccccc2O1 (single isomer, unassigned; (-)) [(-)-MDL 72832] | – | binding at the 5-HT1A receptor site relative to the dextrorotary isomer (5-HT1A receptor; (-)-isomer vs dextrorotary isomer): 32 times
3 | COc1cccc2cc(CNCCN3C(=O)C4C5C=CC(C6C=CC65)C4C3=O)oc12 (stereo not shown) [Example 1, 3a, 4,4a, 6a, 7,7a-Hexahydro-2-[2-[[(7-methoxy-2-benzofuranyl)methyl]amino]ethyl]-4,7-etheno-1H-cyclobut[f]isoindole-1,3(2H)-dione] | 31% | –
4 | COc1cccc2cc(CNCCNC(=O)C34CC5CC(CC(C5)C3)C4)oc12 [Example 2, N-[2-[[(7-Methoxy-2-benzofuranyl)methyl]amino]ethyl]tricyclo[3.3.1.1^3,7]decane-1-carboxamide] | 100% | IC50 [1]: 0.5 nM; ED50 (serotonin syndrome; [3]): 11.7 mg/kg; inhibition at 1 µM (dopamine D2 receptor): 29%
5 | COc1cccc2cc(CNCCN3C(=O)CC4(CCCC4)CC3=O)oc12 [Example 3, 8-[2-[[(7-Methoxy-2-benzofuranyl)methyl]amino]ethyl]-8-azaspiro[4.5]decane-7,9-dione] | 61% | inhibition at 1 µM (dopamine D2 receptor): 72%
6 | COc1cccc2cc(CNCCN3C(=O)C4CC(C3=O)C3C4C4C5CC6C4C6C53)oc12 (stereo not shown) [Example 4, Decahydro-3-[2-[[(7-methoxy-2-benzofuranyl)methyl]amino]ethyl]-1,5-methano-6,7,9-metheno-2H-pentaleno[1,2-d]azepine-2,4(3H)-dione] | 59% | inhibition at 1 µM (dopamine D2 receptor): 49%
7 | COc1cccc2cc(CNCCNC(=O)c3ccc(F)cc3)oc12 [Example 6] | 87% | inhibition at 1 µM (dopamine D2 receptor): 70%
8 | COc1cccc2cc(CNCCNC(=O)C34CC5CC(CC3C5)C4)oc12 [Example 7, N-[2-[[(7-Methoxy-2-benzofuranyl)methyl]amino]ethyl]hexahydro-2,5-methanopentalene-3a(1H)-carboxamide] | 99% | ED50 (serotonin syndrome; [3]): 15.4 mg/kg
9 | COc1cccc2cc(CNCCNC(=O)C3(C)CCCCC3)oc12 [Example 8, N-[2-[[(7-Methoxy-2-benzofuranyl)methyl]amino]ethyl]-1-methyl-1-cyclohexanecarboxamide] | 92% | –
10 | COc1ccc2cc(CNCCNC(=O)C34CC5CC(CC(C5)C3)C4)oc2c1OC [Example 9, N-[2-[[(6,7-Dimethoxy-2-benzofuranyl)methyl]amino]ethyl]tricyclo[3.3.1.1^3,7]decane-1-carboxamide] | 63% | –
11 | COc1cccc2cc(CN(C)CCNC(=O)C34CC5CC(CC(C5)C3)C4)oc12 [Example 10, N-[2-[[(7-Methoxy-2-benzofuranyl)methyl]methylamino]ethyl]tricyclo[3.3.1.1^3,7]decane-1-carboxamide] | 90% | IC50 [1]: 9 nM
12 | COc1cccc2cc(CNCCNC(=O)C(C)(C)C)oc12 [Example 11, N-[2-[[(7-Methoxy-2-benzofuranyl)methyl]amino]ethyl]-2,2-dimethylpropanamid] | 38% | –
13 | O=C(NCCNCc1cc2ccc(OCc3ccccc3)cc2o1)C12CC3CC(CC(C3)C1)C2 [Example 12, N-[2-[[(6-Phenylmethoxy-2-benzofuranyl)methyl]amino]ethyl]tricyclo[3.3.1.1^3,7]decane-1-carboxamide] | 20% | –
14 | O=C(NCCNCc1cc2cccc(F)c2o1)C12CC3CC(CC(C3)C1)C2 [Example 13, N-[2-[[(7-Fluoro-2-benzofuranyl)methyl]amino]ethyl]tricyclo[3.3.1.1^3,7]decane-1-carboxamide] | 95% | –
15 | O=C(NCCNCc1cc2cc(O)ccc2o1)C12CC3CC(CC(C3)C1)C2 [Example 15, N-[2-[[(5-Hydroxy-2-benzofuranyl)methyl]amino]ethyl]tricyclo[3.3.1.1^3,7]decane-1-carboxamide] | 64% | –
16 | O=C(NCCNCc1cc2cccc(Cl)c2o1)C12CC3CC(CC(C3)C1)C2 [Example 16, N-[2-[[(7-Chloro-2-benzofuranyl)methyl]amino]ethyl]tricyclo[3.3.1.1^3,7]decane-1-carboxamide] | 97% | –
17 | O=C(NCCNCc1cc2ccc(O)cc2o1)C12CC3CC(CC(C3)C1)C2 [Example 17, N-[2-[[(6-Hydroxy-2-benzofuranyl)methyl]amino]ethyl]tricyclo[3.3.1.1^3,7]decane-1-carboxamide] | 88% | –
18 | O=C1CC2(CCCC2)CC(=O)N1CCCCNCC1COc2ccccc2O1 (stereo not shown) [MDL 72832, 8-[4-(1,4-benzodioxan-2-ylmethylamino)butyl]-8-azaspiro[4.5]decane-7,9-dione] | – | 5-HT1A receptor ligand character (in words) (5-HT1A receptor): selective and stereospecific
19 | O=C1CC2(CCCC2)CC(=O)N1CCCCN1CCN(c2ncccn2)CC1 [buspirone] | – | affinity for the serotonin 5-HT1A receptor (in words) [2]: high affinity; also recorded: potent affinity; ED50 (serotonin syndrome; 0.25 h, agonist activity, first 15 minutes after administration, read-out: ED50, produced the serotonin syndrome): 7.3 mg/kg; ED50 (serotonin syndrome; antagonist activity, challenge with 5-MeODMT, read-out: ED50, antagonized 5-MeODMT-induced syndrome): 4.6 mg/kg; characterization in the serotonin syndrome test (serotonin syndrome; in words): partial agonist
